In article PMC11229374, “Unlocking the potential of protein-derived peptides to target G-quadruplex DNA: from recognition to anticancer activity” (Nucleic Acids Research, 2024):
“And” between values parts separate entries of the source, which are not always exact repeats. Equal entries are not always repeated.

Tests used:
[1] = molecular target: HT-FANA G4; test: Microscale thermophoresis (MST) binding to HT-FANA G4; parameters: species or system human; conditions: 25°C, 20 nM FITC-labelled peptide, DNA serial dilution, 5 mM KH2PO4/K2HPO4 pH 7.0, 20 mM KCl, 0.1% Tween, 5% DMSO
Protocol: MST experiments were conducted using a Monolith NT.115 instrument (NanoTemper Technologies, Munich, Germany) at 25°C with medium MST power settings. […] DNA samples were also diluted using the same buffer supplemented with 0.1% Tween. During MST experiments, the concentration of the labelled peptide was kept constant at 20 nM, while a serial dilution of the investigated DNA molecules (ranging from 10 or 20 μM) was prepared and mixed with the peptide solution in a 1:1 volume ratio. All the samples, with a final concentration of 5% DMSO, were loaded into standard capillaries (NanoTemper Technologies) for MST measurements. Data analysis was carried out using the MO.Affinity Analysis (v2.3) software provided with the instrument.

[2] = system: c-MYC G4; conditions: CD melting at 264 nm, 2 μM DNA, 1 mol equiv peptide, 5 mM KH2PO4/K2HPO4 pH 7.0, 20 mM LiCl, 1°C/min; average of three; T1/2 DNA alone 68.2°C
Protocol: (§1) CD experiments were carried out using a Jasco J-815 spectropolarimeter equipped with a PTC-423S/15 Peltier temperature controller. G4-forming and duplex-forming DNA molecules were prepared at a concentration of 2 μM in 5 mM KH2PO4/K2HPO4 buffer (pH 7.0) containing 20 mM KCl or LiCl. CD spectra of DNA/peptide mixtures were obtained by adding 1 mol equiv of peptide (stock solutions of 10 mM in H2O) with respect to the oligonucleotide. CD spectra of DNA molecules in the absence and presence of peptide were recorded at 20 and 100°C in the wavelength range of 220−320 nm and averaged over three scans, utilizing a scan rate of 100 nm/min with a 0.5 s response time and 1 nm bandwidth. The buffer baseline was subtracted from each spectrum. Additionally, CD spectra of Myb1^397–415 in the absence and presence of G4s were recorded at 20°C in the 200−250 nm wavelength range using a scan rate of 20 nm/min, with a 4 s response time and 2 nm bandwidth. The G4 spectra were subtracted from the corresponding G4/peptide mixtures to obtain information on the peptide spectrum in the presence of G4. The percentage of secondary structures adopted by the peptide in the absence and presence of the G4s was estimated using the BeStSel software ([26]). CD melting experiments were performed in the absence and presence of peptides (1 or 2 mol equiv) in the 20−100°C temperature range at 1°C/min heating rate, monitoring changes of the CD signal at wavelengths corresponding to the maximum CD intensity for the G4s (264 nm for c-KIT1, c-KIT2, c-MYC, HER2, HT-FANA, BCL-2, and VEGFR-17T; 290 nm for HRAS1, LWDLN1, HT1, and HT2) and at 252 nm for ds12 duplex. The apparent melting temperatures (T1/2) were determined using non-linear curve fitting with OriginLab© 2021 software (OriginLab Corp., MA, USA). ΔT1/2 values were calculated as the difference in the T1/2 values of the DNA structures in the presence and absence of a peptide.

[3] = system: HT-FANA G4; conditions: CD melting at 264 nm, 2 μM DNA, 1 mol equiv peptide, 5 mM KH2PO4/K2HPO4 pH 7.0, 20 mM KCl, 1°C/min; average of three; T1/2 DNA alone 62.9°C
Protocol: as §1

[4] = system: ds12 duplex; conditions: CD melting at 252 nm, 2 μM DNA, 1 mol equiv peptide, 5 mM KH2PO4/K2HPO4 pH 7.0, 20 mM KCl, 1°C/min; average of three; T1/2 DNA alone 62.7°C
Protocol: as §1

[5] = system: VEGFR-17T G4; conditions: CD melting at 264 nm, 2 μM DNA, 1 mol equiv peptide, 5 mM KH2PO4/K2HPO4 pH 7.0, 20 mM KCl, 1°C/min; average of three; T1/2 DNA alone 53.7°C
Protocol: as §1

[6] = system: HER2 G4; conditions: CD melting at 264 nm, 2 μM DNA, 1 mol equiv peptide, 5 mM KH2PO4/K2HPO4 pH 7.0, 20 mM KCl, 1°C/min; average of three; T1/2 DNA alone 62.4°C
Protocol: as §1

[7] = system: BCL-2 G4; conditions: CD melting at 264 nm, 2 μM DNA, 1 mol equiv peptide, 5 mM KH2PO4/K2HPO4 pH 7.0, 20 mM KCl, 1°C/min; average of three; T1/2 DNA alone 60.7°C
Protocol: as §1

[8] = system: c-KIT1 G4; conditions: CD melting at 264 nm, 2 μM DNA, 1 mol equiv peptide, 5 mM KH2PO4/K2HPO4 pH 7.0, 20 mM KCl, 1°C/min; average of three; T1/2 DNA alone 53.8°C
Protocol: as §1

Ac-NHTGNSIRHRFRVYLSKRL-NH2 [Myb^397–415]
Kd [1]: 140 nM | ΔT1/2 of c-MYC G4 [2]: 5.0 (±0.2) °C | ΔT1/2 of HT-FANA G4 [3]: 8.3 °C and 8.3 (±0.2) °C | ΔT1/2 of ds12 duplex [4]: 1.0 °C and 1.0 (±0.2) °C | ΔT1/2 of VEGFR-17T G4 [5]: 0.2 (±0.2) °C | ΔT1/2 of HER2 G4 [6]: 7.0 (±0.2) °C | ΔT1/2 of BCL-2 G4 [7]: 8.0 (±0.2) °C | ΔT1/2 of c-KIT1 G4 [8]: 6.2 (±0.2) °C
